Reference: patent US9453044
Where two headings read alike, the source gives them in different places.

Conditions: amide bond, salicylaldehyde ester ligation, TFA, 2 steps

SMILES: CC(C)C[C@@H]1NC(=O)[C@H](Cc2ccccc2)NC(=O)[C@H](CO)NC(=O)[C@H](C)NC(=O)[C@H](Cc2ccccc2)NC1=O [SFLFA]
- ring closure, yield after HPLC (from H-Ser-Phe-Leu-Phe-Ala-OPhCHO?, 15-membered ring): 35%

SMILES: CC(C)C[C@@H]1NC(=O)[C@H](Cc2ccccc2)NC(=O)[C@H](C)NC(=O)[C@H](CCCCN)NC(=O)CNC(=O)[C@H](CO)NC1=O [SGKAFL]
- ring closure, yield after HPLC (from H-Ser-Gly-Lys-Ala-Phe-Leu-OPhCHO?, 18-membered ring): 39%

SMILES: CC(C)C[C@@H]1NC(=O)CNC(=O)[C@H](CO)NC(=O)CNC(=O)[C@H](C)NC(=O)[C@H](Cc2ccccc2)NC(=O)CNC(=O)[C@H](Cc2ccccc2)NC1=O [SGLFGFAG]
- ring closure, yield after HPLC (from H-Ser-Gly-Leu-Phe-Gly-Phe-Ala-Gly-OPhCHO?, 24-membered ring): 65%

SMILES: CC(C)C[C@@H]1NC(=O)CNC(=O)[C@H](CO)NC(=O)CNC(=O)[C@H](C)NC(=O)[C@H](Cc2ccccc2)NC(=O)CNC(=O)[C@H](Cc2ccc(O)cc2)NC1=O [SGLYGFAG]
- ring closure, yield after HPLC (from H-Ser-Gly-Leu-Tyr-Gly-Phe-Ala-Gly-OPhCHO?, 24-membered ring): 52%

SMILES: CC(C)C[C@@H]1NC(=O)[C@H](CO)NC(=O)[C@H](CC(C)C)NC(=O)[C@H](CO)NC1=O [SLSL]
- ring closure, yield after HPLC (from H-Ser-Leu-Ser-Leu-OPhCHO?, 12-membered ring): 20%

SMILES: C[C@@H](O)[C@@H]1NC(=O)CNC(=O)[C@H](Cc2ccccc2)NC(=O)[C@H](Cc2ccccc2)NC(=O)CNC(=O)[C@H](Cc2ccccc2)NC(=O)[C@H](Cc2ccccc2)NC1=O [TFFGFFG]
- ring closure, yield after HPLC (from H-Thr-Phe-Phe-Gly-Phe-Phe-Gly-OPhCHO?, 21-membered ring): 56%

SMILES: CC(C)C[C@@H]1NC(=O)CNC(=O)[C@H]([C@@H](C)O)NC(=O)CNC(=O)[C@H](C)NC(=O)[C@H](Cc2ccccc2)NC(=O)CNC(=O)[C@H](Cc2ccccc2)NC1=O [TGLFGFAG]
- ring closure, yield after HPLC (from H-Thr-Gly-Leu-Phe-Gly-Phe-Ala-Gly-OPhCHO?, 24-membered ring): 63%
